Source: patent publication US8119624B2, “Fused phenyl amido heterocyclic compounds” (Pfizer Inc., priority 2006, dated 2012)

Target: T1, Full-length glucokinase (beta cell isoform) (Homo sapiens, UniProt P35557)
T1 construct: Full-length glucokinase (beta cell isoform) was His-tagged at N-terminus; His tag (N); made in house
T1 sequence (P35557 1-465): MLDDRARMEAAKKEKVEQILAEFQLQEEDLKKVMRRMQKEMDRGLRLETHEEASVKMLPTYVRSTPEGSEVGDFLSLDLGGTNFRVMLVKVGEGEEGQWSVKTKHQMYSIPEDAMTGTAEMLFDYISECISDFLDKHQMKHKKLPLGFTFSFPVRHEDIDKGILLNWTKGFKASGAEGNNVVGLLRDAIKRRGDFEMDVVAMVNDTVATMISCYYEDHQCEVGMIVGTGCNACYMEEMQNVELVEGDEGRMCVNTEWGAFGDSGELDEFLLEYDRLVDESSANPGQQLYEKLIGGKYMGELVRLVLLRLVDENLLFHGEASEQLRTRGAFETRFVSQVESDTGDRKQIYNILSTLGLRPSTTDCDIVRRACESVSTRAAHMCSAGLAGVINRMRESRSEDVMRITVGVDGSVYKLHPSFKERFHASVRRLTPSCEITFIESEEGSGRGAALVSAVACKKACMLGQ
Experiment: Glucokinase biochemical assay (PK/LDH-coupled, NADH depletion at 340 nm): % activation, EC50, % max activation
Settings: 5 mM glucose; for activation at 10 µM: 10 uM compound, % Activation=(Va/Vo−1)×100, read-out: % Activation at 10 uM; for EC50: GK activation, read-out: EC50; for Emax: fitted maximum activation, read-out: % Max Activation
Method in brief: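 N-terminally His-tagged full-length human beta-cell glucokinase, room temperature, 5 mM glucose, 1 mM ATP, PK/LDH-coupled with 0.7 mM NADH, 1% DMSO final. Initial velocity from the 200–900 s slope of A340 decline. % activation = (Va/Vo−1)×100, measured across compound concentrations.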

Structure (SMILES) | activation at 10 µM [%] | EC50 [µM] | Emax [%]
Cc1cc2c(OC3CN(S(C)(=O)=O)C3)cc(C(=O)Nc3cnn(C)n3)cc2o1 [Example 325, 2-Methyl-4-{[1-(methylsulfonyl)azetidin-3-yl]oxy}-N-(2-methyl-2H-1,2,3-triazol-4-yl)-1-benzofuran-6-carboxamide] | 137 | > 10 | 
Cc1ccc(NC(=O)c2cc(Oc3ccc(S(C)(=O)=O)cc3)c3c(c2)OC(C)C3)nc1 (centres unmarked) [Example 10, 4-(4-Methanesulfonyl-phenoxy)-2-methyl-2,3-dihydro-benzofuran-6-carboxylic acid(5-methyl-pyridin-2-yl)-amide] | 98.7 | 1.1 | 122
CN(C)S(=O)(=O)c1ccc(Oc2cc(C(=O)Nc3cnn(C)n3)cc3c2CC(C)(C)O3)cc1F [Example 132, 4-(4-Dimethylsulfamoyl-3-fluoro-phenoxy)-2,2-dimethyl-2,3-dihydro-benzofuran-6-carboxylic acid (2-methyl-2H-[1,2,3]triazol-4-yl)-amide] | 288 | 0.17 | 280
CC(=O)N1CC(Oc2cc(C(=O)Nc3ccn(C)n3)cc3c2CC(C)(C)O3)C1 [Example 196, 4-(1-Acetyl-azetidin-3-yloxy)-2,2-dimethyl-2,3-dihydro-benzofuran-6-carboxylic acid (1-methyl-1H-pyrazol-3-yl)-amide] | 62 | > 10 | 
Cc1ccc(NC(=O)c2cc3c(c(Oc4ccc(S(C)(=O)=O)cc4)c2)CCO3)nc1 [Example 8, 4-(4-Methanesulfonyl-phenoxy)-2,3-dihydro-benzofuran-6-carboxylic acid(5-methyl-pyridin-2-yl)-amide] | 127 | 2.8 | 100
Cc1ccc(NC(=O)c2cc(Oc3ccc(S(C)(=O)=O)cc3)c3cc(C(=O)N(C)C)oc3c2)nc1 [Example 285, N2,N2-Dimethyl-N6-(5-methylpyridin-2-yl)-4-(4-(methylsulfonyl)-phenoxy)-benzofuran-2,6-dicarboxamide] | 121 | 0.547 | 118
COCC1(C)Cc2c(Oc3ccc(C(=O)N4CCC4)c(F)c3)cc(C(=O)Nc3ccn(C)n3)cc2O1 (single isomer, unassigned; (-)) [Example 243, (−)-4-[4-(Azetidine-1-carbonyl)-3-fluoro-phenoxy]-2-methoxymethyl-2-methyl-2,3-dihydro-benzofuran-6-carboxylic acid (1-methyl-1H-pyrazol-3-yl)-amide] | 275 | 0.041 | 218
CC(=O)N1CC(Oc2cc(C(=O)Nc3cnn(C)n3)cc3c2CC(C)(C)O3)C1 [Example 195, 4-(1-Acetyl-azetidin-3-yloxy)-2,2-dimethyl-2,3-dihydro-benzofuran-6-carboxylic acid (2-methyl-2H-[1,2,3]triazol-4-yl)-amide] | 98.9 | > 10 | 
CN(C)C(=O)c1c(F)cc(Oc2cc(C(=O)Nc3ccn(C)n3)cc3c2CC(C)(C)O3)cc1F [Example 111, 4-(4-Dimethylcarbamoyl-3,5-difluoro-phenoxy)-2,2-dimethyl-2,3-dihydro-benzofuran-6-carboxylic acid (1-methyl-1H-pyrazol-3-yl)-amide] | 85.2 | 0.045 | 115
CC1(C)Cc2c(Oc3ccc(S(C)(=O)=O)cc3)cc(C(=O)Nc3ccc(CO)cn3)cc2O1 [Example 22, 4-(4-Methanesulfonyl-phenoxy)-2,2-dimethyl-2,3-dihydro-benzofuran-6-carboxylic acid (5-hydroxymethyl-pyridin-2-yl)-amide] | 118 | 0.29 | 117
CN(C)C(=O)c1ccc(Oc2cc(C(=O)Nc3cnccn3)cc3c2CC(C)(C)O3)cc1 [Example 151, 4-(4-Dimethylcarbamoyl-phenoxy)-2,2-dimethyl-2,3-dihydro-benzofuran-6-carboxylic acid pyrazin-2-ylamide] | 98.1 | 0.47 | 97
CC(C)NC(=O)c1ccc(Oc2cc(C(=O)Nc3ccn(C)n3)cc3c2CC(C)(C)O3)cc1F [Example 71, 4-(3-Fluoro-4-isopropylcarbamoyl-phenoxy)-2,2-dimethyl-2,3-dihydro-benzofuran-6-carboxylic acid(1-methyl-1H-pyrazol-3-yl)-amide] | 181 | 0.41 | 167
Cn1ccc(NC(=O)c2cc(Oc3ccc(S(C)(=O)=O)cc3)c3cc(C(=O)N4CCC4)oc3c2)n1 [Example 291, 2-(Azetidin-1-ylcarbonyl)-N-(1-methyl-1H-pyrazol-3-yl)-4-[4-(methylsulfonyl)-phenoxy]-1-benzofuran-6-carboxamide] | 12.7 |  | 
Cc1ccc(NC(=O)c2cc(Oc3ccc(S(=O)(=O)N(C)C)c(F)c3)c3cc(C)oc3c2)nc1 [Example 304, 4-{4-[(Dimethylamino)sulfonyl]-3-fluorophenoxy}-2-methyl-N-(5-methyl-pyridin-2-yl)-1-benzofuran-6-carboxamide] | 94.6 | 0.24 | 89
COCC1Cc2c(Oc3ccc(C(=O)N(C)C)c(F)c3)cc(C(=O)Nc3ccn(C)n3)cc2O1 (centres unmarked) [Example 205, 4-(4-Dimethylcarbamoyl-3-fluoro-phenoxy)-2-methoxymethyl-2,3-dihydro-benzofuran-6-carboxylic acid (1-methyl-1H-pyrazol-3-yl)-amide] | 90.8 | 0.42 | 94.5
Cc1cc2c(Oc3ccc(S(C)(=O)=O)cc3)cc(C(=O)Nc3ccon3)cc2o1 [Example 258, N-(Isoxazol-3-yl)-2-methyl-4-(4-(methylsulfonyl)phenoxy)-benzofuran-6-carboxamide] | 99.7 | 5.8 | 142
CN(C)C(=O)c1cc2c(Oc3ccc(S(C)(=O)=O)cc3)cc(C(=O)Nc3ccn(C)n3)cc2o1 [Example 286, N2,N2-Dimethyl-N6-(1-methyl-1H-pyrazol-3-yl)-4-[4-(methylsulfonyl)phenoxy]-1-benzofuran-2,6-dicarboxamide] | 178 | 2.6 | 224
CN(C)C1CN(C(=O)c2ccc(Oc3cc(C(=O)Nc4ccn(C)n4)cc4c3CC(C)(C)O4)cc2F)C1 [Example 57, 4-[4-(3-Dimethylamino-azetidine-1-carbonyl)-3-fluoro-phenoxy]-2,2-dimethyl-2,3-dihydro-benzofuran-6-carboxylic acid(1-methyl-1H-pyrazol-3-yl)-amide] | 131 | 0.643 | 148
Cc1ccc(NC(=O)c2cc(Oc3ccc(C(=O)N(C)C)cc3)c3occc3c2)nc1 [Example 335, 7-{4-[(Dimethylamino)carbonyl]phenoxy}-N-(5-methylpyridin-2-yl)-1-benzofuran-5-carboxamide] | 26 |  | 
Cc1ccc(NC(=O)c2cc(Oc3ccc(S(C)(=O)=O)cc3)c3sc(C)cc3c2)nc1 [Example 329, 2-Methyl-N-(5-methylpyridin-2-yl)-7-[4-(methylsulfonyl)-phenoxy]-1-benzothiophene-5-carboxamide] | 86.8 | 1.6 | 113
